Assay results from US8980820B2, “Fatty acid binding proteins as drug targets for endocannabinoids” (The Research Foundation for the State University of New York, priority 2010, dated 2015).
Entries after “also recorded” stand apart in the source; their conditions may differ.

How the values were obtained:
[1] = target: T1, FAAH (Rattus norvegicus, UniProt P97612); experiment: FAAH enzyme assay, COS-7-FAAH-eGFP homogenates; format: biochemical; settings: 100 μM inhibitor, 100 μM [14C]AEA, p>0.05
T1 construct: N-terminal transmembrane helix (residues 1-29) in red, residues 30-579 in black, and eGFP in green; expressed in transfected cells
T1 sequence (P97612 1-579): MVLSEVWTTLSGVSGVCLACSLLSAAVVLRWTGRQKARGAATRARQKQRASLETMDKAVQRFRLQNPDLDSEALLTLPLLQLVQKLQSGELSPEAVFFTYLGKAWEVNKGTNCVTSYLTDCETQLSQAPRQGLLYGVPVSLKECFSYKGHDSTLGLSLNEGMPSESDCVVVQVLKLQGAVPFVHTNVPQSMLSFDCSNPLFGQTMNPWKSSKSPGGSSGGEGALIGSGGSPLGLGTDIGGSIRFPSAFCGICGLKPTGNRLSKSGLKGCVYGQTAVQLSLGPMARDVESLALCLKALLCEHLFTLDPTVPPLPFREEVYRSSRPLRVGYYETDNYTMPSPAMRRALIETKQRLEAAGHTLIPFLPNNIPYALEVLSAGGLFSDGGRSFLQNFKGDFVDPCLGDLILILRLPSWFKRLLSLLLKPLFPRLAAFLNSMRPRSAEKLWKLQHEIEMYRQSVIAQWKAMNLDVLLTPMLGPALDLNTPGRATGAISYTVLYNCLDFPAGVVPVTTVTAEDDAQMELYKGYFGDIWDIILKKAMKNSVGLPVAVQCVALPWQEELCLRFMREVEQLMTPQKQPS
Experimental: (§1) FAAH activity assays were performed as previously described. Briefly, cell homogenates were incubated with 100 μM AEA+0.1 μCi [^14C]AEA in Tris-HCl (pH 9) containing 0.1% BSA. For activity analysis, time and total protein were adjusted to maintain substrate conversion at approximately 10%. […] AEA (100 μM) for 1 or 30 min, respectively. Reactions were stopped by the addition of two volumes of 1:1 chloroform:methanol and the phases separated by centrifugation. The methanol phase (containing [^14C]ethanolamine) was sampled and quantified using a Beckman LS 6500 scintillation counter.

[2] = tested on: N18TG2 cells; experiment: [14C]AEA cellular uptake and hydrolysis in N18TG2 cells; format: cell-based, mouse
Experimental: (§2) COS-7 and N18TG2 cells were grown in DMEM supplemented with 10% fetal bovine serum, 100 U/ml penicillin/streptomycin, 2 mM L-glutamine, and 1 mM sodium pyruvate in a humidified incubator containing 95% air and 5% CO2. Transfections were carried out using Lipofectamine 2000 (Invitrogen, Carlsbad, Calif.) according to the manufacturer's instructions. For stable cell selection, forty eight hours after transfection cells were expanded in medium containing 750 μg/ml geneticin (Invitrogen, Carlsbad, Calif.). Four weeks later, stable cells were subjected to flow cytometry at the Flow Cytometry Core Facility in Stony Brook University and cells expressing identical levels of the indicated FAAH-eGFP fusion proteins were collected and expanded.
(§3) Cells were plated at ˜90% confluency in 35 mm dishes, washed twice in DMEM and preincubated with the desired pharmacological compounds or vehicle controls (EtOH or DMSO). The cells were washed twice in DMEM and subsequently incubated for 5 min, 10 or 3 sec, with 750 μl [^14C]AEA (100 nM) that was pre-equilibrated for 75 min in medium containing 0.15% BSA. The equilibration step is necessary to avoid uneven distribution of the radiotracer and to ensure that it is stable in solution pre-bound to BSA. Less than 1% of AEA was hydrolyzed during this pre-equilibration step (data not shown). Following the incubation, 750 μl of ice-cold DMEM+0.15% BSA was added to the plates, the media separated from cells, which were then washed with DMEM+0.15% BSA to remove non-specifically bound AEA. The cells were scraped three times with 400 μl of ice-cold 2 mM EDTA in PBS and chloroform:methanol (1:1) added to the media and cells and the phases separated by centrifugation. The resulting aqueous (containing [^14C]ethanolamine) and organic (containing intact [^14C]AEA) phases were counted by liquid scintillation counting. [^14C]AEA uptake was determined by summing the production of [^14C]ethanolamine in the media and cells with intact cellular [^14C]AEA. Hydrolysis of [^14C]AEA was quantified by production of [^14C]ethanolamine in the media and cells. Blanks consisting of either untransfected COS-7 cells or N18TG2 cells treated with 100 nM of the FAAH inhibitor URB597 were subtracted from all conditions.

[3] = target: T2, FAAH (Mus musculus, UniProt O08914); experiment: FAAH enzyme assay, N18TG2 homogenates; format: biochemical; settings: 100 μM inhibitor, 100 μM [14C]AEA, p>0.05
T2 construct: endogenous in cells; host or cells: N18TG2 mouse neuroblastoma cells, used as homogenate
T2 sequence (O08914 1-579): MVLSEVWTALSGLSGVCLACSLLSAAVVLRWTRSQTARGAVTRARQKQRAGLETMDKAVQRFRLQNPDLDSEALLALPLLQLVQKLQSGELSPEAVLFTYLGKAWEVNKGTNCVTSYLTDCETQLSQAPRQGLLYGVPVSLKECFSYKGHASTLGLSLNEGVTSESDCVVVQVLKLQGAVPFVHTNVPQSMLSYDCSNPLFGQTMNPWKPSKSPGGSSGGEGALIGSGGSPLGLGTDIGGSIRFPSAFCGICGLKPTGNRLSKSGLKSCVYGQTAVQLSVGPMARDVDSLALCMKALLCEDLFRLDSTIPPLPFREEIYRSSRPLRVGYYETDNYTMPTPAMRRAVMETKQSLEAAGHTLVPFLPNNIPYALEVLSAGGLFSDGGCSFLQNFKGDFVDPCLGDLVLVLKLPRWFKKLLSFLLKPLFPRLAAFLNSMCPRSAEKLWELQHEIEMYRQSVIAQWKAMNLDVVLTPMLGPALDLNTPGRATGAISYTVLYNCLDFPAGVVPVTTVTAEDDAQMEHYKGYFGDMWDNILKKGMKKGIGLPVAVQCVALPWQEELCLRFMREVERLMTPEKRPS
Experimental: as §1

[4] = tested on: COS7-FAAH-eGFP cells; experiment: [14C]AEA cellular uptake and hydrolysis in COS7-FAAH-eGFP cells; format: cell-based, African green monkey
Experimental: as §2, §3

[5] = stability of AEA during pre-equilibration in medium with BSA; format: physicochemical; settings: 75 min in medium containing 0.15% BSA, data not shown
Experimental: as §3, with “Blanks consisting of either untransfected COS-7 cells or N18TG2 cells treated with 100 nM of the FAAH inhibitor URB597 were subtracted from all conditions.” left out

[6] = 100 μM, 5 min, vs vehicle, p<0.05
[7] = oleic acid 100 μM, 5 min incubation, [14C]AEA 100 nM
[8] = 20-100 μM BMS309403, dose-dependent

Compound | [14C]AEA hydrolysis (FAAH activity) by homogenates [1] | [14C]AEA hydrolysis, effect in words [2, 6] | [14C]AEA uptake, effect in words [2, 6] | reduction of [14C]AEA uptake [2, 7] [%] | [14C]AEA hydrolysis (FAAH activity) by homogenates [3] | [14C]AEA hydrolysis, effect in words [4, 6] | [14C]AEA uptake, effect in words [4, 6] | reduction of [14C]AEA uptake [4, 7] [%] | intracellular hydrolysis of [14C]AEA following uptake ([2]; 3 sec, 20-100 μM) | levels of cell associated [14C]AEA ([2]; 3 sec, data not shown) | maximal inhibition of [14C]AEA uptake [2, 8] [%] | [14C]AEA hydrolysis (metabolism), effect in words ([2]; 20-100 μM, vs vehicle) | [14C]AEA uptake, effect in words ([2]; 20-100 μM, vs vehicle) | intracellular hydrolysis of [14C]AEA following uptake ([4]; 3 sec, 20-100 μM) | levels of cell associated [14C]AEA ([4]; 3 sec, data not shown) | maximal inhibition of [14C]AEA uptake [4, 8] [%] | [14C]AEA hydrolysis (metabolism), effect in words ([4]; 20-100 μM, vs vehicle) | [14C]AEA uptake, effect in words ([4]; 20-100 μM, vs vehicle) | AEA hydrolyzed during pre-equilibration step [5]
CCCCCCCC/C=C\CCCCCCCC(=O)O [oleic acid] | did not inhibit; also recorded: not inhibited | significantly reduced | significantly reduced | 53 | did not inhibit; also recorded: not inhibited | significantly reduced | significantly reduced | 25 | – | – | – | – | – | – | – | – | – | – | –
CCc1c(-c2ccccc2)c(-c2ccccc2)nn1-c1ccccc1-c1cccc(OCC(=O)O)c1 [BMS309403] | did not inhibit; also recorded: not inhibited | – | – | – | did not inhibit; also recorded: not inhibited | – | – | – | reduced | without affecting | 57 | proportionally and significantly reduced; also recorded: significantly decreased | significantly decreased | reduced | without affecting | 48 | proportionally and significantly reduced; also recorded: significantly decreased | significantly decreased | –
CCCCC/C=C\C/C=C\C/C=C\C/C=C\CCCC(=O)NCCO [AEA, arachidonoyl ethanolamide] | – | – | – | – | – | – | – | – | – | – | – | – | – | – | – | – | – | – | Less than 1%
